Laboratory results published in patent US20160168118A1, “N-(5-QUINOLIN-6-YL)PYRIDIN-3-YL) BENZSULFAMIDE DERIVATIVES, PREPARATION METHOD AND THERAPEUTIC USE THEREOF” (SECOND MILITARY MEDICAL UNIVERSITY, PLA, priority 2012, published 2016).
≈ marks a conversion by molar mass, not a printed value.

Assays:
[1] = tested on: U87MG (human brain star glioblastoma); assay: MTT assay, U87MG; format: cell-based; conditions: U-87 MG, 72 h
Method: (§1) 1. Sample preparation: After dissolved with DMSO (Merck), PBS (−) was added to make 1000 μg/ml solution or a uniform suspension, and then diluted with PBS (−) containing the DMSO. Doxorubicin (DOX) was used as the positive control drug.
(§2) 2. Cell Line • 1) A549 (human lung cancer cells); 2) HCT116 (human colon cancer cells); 3) HepG2 (human hepatoma cells); 4) ZR-75-30 (human breast cancer cells); 5) U87MG (human brain star glioblastoma)
(§3) DMEM+5-10% FBS+double resistant
(§4) MTT assay. 100 μl cell suspension was added at a concentration of 4˜5×10^4 cells/ml to each well of a 96-well plate, and was set at 37° C., 5% CO2 in the incubator. After 24 h, the sample solution was added, 10 μl/hole, double wells were set, 37° C., acting for 72 h at 5% CO2. […] of 5 mg/ml was added to each well, the dissolving liquid was added after acted for 4 h, 100 μl/hole, kept in the incubator, and read 570 nm OD with MK-2 automatic microplate reader after dissolution.

[2] = tested on: HCT116 (human colon cancer cells); assay: MTT assay, HCT116; format: cell-based; conditions: HCT-116, 72 h
PI3Kα = PI3Kα (Homo sapiens, UniProt P42336); assay: Kinase-Glo Luminescent Kinase Assay, PI3Kα; format: biochemical
[3] = tested on: A549 (human lung cancer cells); assay: MTT assay, A549; format: cell-based; conditions: 72 h
Method: as §1, §2, §3, §4

[4] = tested on: HepG2 (human hepatoma cells); assay: MTT assay, HepG2; format: cell-based; conditions: 72 h
Method: as §1, §2, §3, §4

PI3Kα, sequence (P42336 whole entry, species assumed): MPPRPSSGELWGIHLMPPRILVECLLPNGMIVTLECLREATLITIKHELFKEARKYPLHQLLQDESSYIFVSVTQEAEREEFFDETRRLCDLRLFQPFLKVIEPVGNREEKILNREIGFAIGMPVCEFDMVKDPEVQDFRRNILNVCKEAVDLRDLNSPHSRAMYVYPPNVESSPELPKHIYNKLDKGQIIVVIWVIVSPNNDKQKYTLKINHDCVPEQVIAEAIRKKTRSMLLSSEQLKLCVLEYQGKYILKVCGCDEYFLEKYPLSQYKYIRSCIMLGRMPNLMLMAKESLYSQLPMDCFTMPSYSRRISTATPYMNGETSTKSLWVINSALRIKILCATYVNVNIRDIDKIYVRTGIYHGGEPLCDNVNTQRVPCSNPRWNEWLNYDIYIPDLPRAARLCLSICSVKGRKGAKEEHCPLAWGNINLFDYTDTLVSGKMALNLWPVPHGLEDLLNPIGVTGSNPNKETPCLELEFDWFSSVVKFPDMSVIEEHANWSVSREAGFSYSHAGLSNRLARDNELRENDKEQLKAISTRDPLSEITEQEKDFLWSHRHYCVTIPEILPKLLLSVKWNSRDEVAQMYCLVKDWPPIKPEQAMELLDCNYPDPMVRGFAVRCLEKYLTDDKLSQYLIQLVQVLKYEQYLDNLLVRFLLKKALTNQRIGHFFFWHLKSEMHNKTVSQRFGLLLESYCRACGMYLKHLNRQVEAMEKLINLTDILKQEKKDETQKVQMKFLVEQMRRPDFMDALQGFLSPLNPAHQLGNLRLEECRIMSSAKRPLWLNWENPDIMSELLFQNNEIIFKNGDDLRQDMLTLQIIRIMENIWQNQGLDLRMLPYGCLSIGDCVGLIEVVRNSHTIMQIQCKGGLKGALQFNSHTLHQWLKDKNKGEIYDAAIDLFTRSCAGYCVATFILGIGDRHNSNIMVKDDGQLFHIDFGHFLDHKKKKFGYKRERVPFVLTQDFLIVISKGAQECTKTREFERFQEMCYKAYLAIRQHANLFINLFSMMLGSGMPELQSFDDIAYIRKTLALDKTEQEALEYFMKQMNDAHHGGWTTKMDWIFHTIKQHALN
PI3Kα, sequence (P27986 whole entry partner, species assumed): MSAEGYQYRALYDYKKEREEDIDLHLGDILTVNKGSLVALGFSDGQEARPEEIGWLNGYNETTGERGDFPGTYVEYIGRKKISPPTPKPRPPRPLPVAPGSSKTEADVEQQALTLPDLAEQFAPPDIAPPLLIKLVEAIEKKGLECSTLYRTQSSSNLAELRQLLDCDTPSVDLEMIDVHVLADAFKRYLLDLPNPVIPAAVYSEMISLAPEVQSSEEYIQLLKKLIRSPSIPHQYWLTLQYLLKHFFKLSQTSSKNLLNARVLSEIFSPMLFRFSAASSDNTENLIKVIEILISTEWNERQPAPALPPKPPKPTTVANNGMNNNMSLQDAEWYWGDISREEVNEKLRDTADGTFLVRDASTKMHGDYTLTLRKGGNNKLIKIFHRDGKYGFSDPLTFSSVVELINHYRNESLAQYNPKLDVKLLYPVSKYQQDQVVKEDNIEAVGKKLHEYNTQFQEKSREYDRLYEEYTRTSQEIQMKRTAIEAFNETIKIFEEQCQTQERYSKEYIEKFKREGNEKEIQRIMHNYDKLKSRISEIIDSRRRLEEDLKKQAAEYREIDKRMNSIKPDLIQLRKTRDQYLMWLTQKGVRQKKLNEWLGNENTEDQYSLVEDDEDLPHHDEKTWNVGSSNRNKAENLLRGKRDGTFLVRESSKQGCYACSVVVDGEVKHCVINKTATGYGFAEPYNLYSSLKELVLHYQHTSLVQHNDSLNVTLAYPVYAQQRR

SMILES	melting point [°C]	IC50 [1] [µg/mL]	IC50 [2] [µg/mL]	IC50 (PI3Kα) [nM]	IC50 [3] [µg/mL]	IC50 [4] [µg/mL]
COc1ncc(-c2ccc3nccc(-c4ccc(C(=O)N5CCCC5)cc4)c3c2)cc1NS(=O)(=O)c1ccc(F)cc1F [Compound 11, N-(2-methoxy-5-(4-(4-(pyrrolidinyl-1-carbonyl)phenyl)quinolin-6-yl)pyridin-3-yl)-2,4-difluorobenzenesulfonamide]	115 to 117	0.284 (≈ 0.473 µM)	0.221 (≈ 0.368 µM)	0.7	0.048 (≈ 0.0799 µM)	
COc1ncc(-c2ccc3nccc(-c4ccc(CN5CCCC5)cc4)c3c2)cc1NS(=O)(=O)c1ccc(F)cc1F [Compound 12]	129 to 130	0.093 (≈ 0.159 µM)	0.011 (≈ 0.0188 µM)	1.4	0.022 (≈ 0.0375 µM)	
COc1ncc(-c2ccc3nccc(-c4ccc(CN5CCOCC5)cc4)c3c2)cc1NS(=O)(=O)c1ccc(F)cc1F [Compound 13, N-(5-(4-(4-((morpholino-1-yl)methyl)phenyl)quinolin-6-yl)-2-methoxypyridine-3-yl)-2,4-difluorobenzenesulfonamide]	97 to 99	0.091 (≈ 0.151 µM)	0.00196 (≈ 0.00325 µM)	1.1	0.042 (≈ 0.0697 µM)	
COc1ncc(-c2ccc3nccc(-c4ccc(CN5CCCCC5)cc4)c3c2)cc1NS(=O)(=O)c1ccc(F)cc1F [Compound 14, N-(5-(4-(4-((piperidine-1-yl)methyl)phenyl)quinolin-6-yl)-2-methoxypyridine-3-yl)-2,4-difluorobenzenesulfonamide]		0.019 (≈ 0.0316 µM)	0.0205 (≈ 0.0341 µM)	1.2	0.00934 (≈ 0.0155 µM)	
COc1ncc(-c2ccc3nccc(-c4ccc(Cn5ccnc5)cc4)c3c2)cc1NS(=O)(=O)c1ccc(F)cc1F [Compound 15, N-(5-(4-(4-((1H-imidazole-1-yl)methyl)phenyl)quinolin-6-yl)-2-methoxypyridine-3-yl)-2,4-difluorobenzenesulfonamide]	108 to 109	0.35 (≈ 0.6 µM)	0.019 (≈ 0.0326 µM)	1.1	0.018 (≈ 0.0308 µM)	
COc1ncc(-c2ccc3nccc(-c4ccc(Cn5ccnc5C)cc4)c3c2)cc1NS(=O)(=O)c1ccc(F)cc1F [Compound 16, N-(5-(4-(4-((2-methyl-1H-imidazole-1-yl)methyl)phenyl)quinolin-6-yl)-2-methoxypyridine-3-yl)-2,4-difluorobenzenesulfonamide]	110 to 111	0.024 (≈ 0.0402 µM)	0.00846 (≈ 0.0142 µM)	0.95	0.00608 (≈ 0.0102 µM)	
COc1ncc(-c2ccc3nccc(-c4ccc(CN5CCN(C(C)C)CC5)cc4)c3c2)cc1NS(=O)(=O)c1ccc(F)cc1F [Compound 18, N-(5-(4-(4-((4-isopropylpiperazine-1-yl)methyl)phenyl)quinolin-6-yl)-2-methoxypyridine-3-yl)-2,4-difluorobenzenesulfonamide]		0.301 (≈ 0.468 µM)	0.0159 (≈ 0.0247 µM)	1.7	0.00124 (≈ 0.00193 µM)	
COc1ncc(-c2ccc3nccc(-c4ccc(CN5CCN(CCO)CC5)cc4)c3c2)cc1NS(=O)(=O)c1ccc(F)cc1F [Compound 19, N-(5-(4-(4-((4-(2-hydroxyethyl)piperazine-1-yl)methyl)phenyl)quinolin-6-yl)-2-methoxypyridine-3-yl)-2,4-difluorobenzenesulfonamide]		0.137 (≈ 0.212 µM)	0.014 (≈ 0.0217 µM)	1.2	0.016 (≈ 0.0248 µM)	
COc1ncc(-c2ccc3nccc(-c4ccc(CN(CCO)CCO)cc4)c3c2)cc1NS(=O)(=O)c1ccc(F)cc1F [Compound 20, N-(5-(4-(4-((di(2-hydroxyethyl)amino)methyl)phenyl)quinolin-6-yl)-2-methoxypyridine-3-yl)-2,4-difluorobenzenesulfonamide]	90 to 91	0.089 (≈ 0.143 µM)	0.00237 (≈ 0.00382 µM)	1.3	0.00174 (≈ 0.0028 µM)	
COc1ncc(-c2ccc3nccc(-c4ccc(Cn5cccn5)cc4)c3c2)cc1NS(=O)(=O)c1ccc(F)cc1F [Compound 21, N-(5-(4-(4-((1H-pyrazole-1-yl)methyl)phenyl)quinolin-6-yl)-2-methoxypyridine-3-yl)-2,4-difluorobenzenesulfonamide]	93 to 95	0.935 (≈ 1.6 µM)	0.031 (≈ 0.0531 µM)	1.1	0.018 (≈ 0.0308 µM)	
CCN(Cc1ccc(-c2ccnc3ccc(-c4cnc(OC)c(NS(=O)(=O)c5ccc(F)cc5F)c4)cc23)cc1)C1CCCCC1 [Compound 22, N-(5-(4-(4-((cyclohexyl(ethyl)amino)methyl)phenyl)quinolin-6-yl)-2-methoxypyridine-3-yl)-2,4-difluorobenzenesulfonamide]	87 to 88	0.93 (≈ 1.45 µM)	0.143 (≈ 0.222 µM)	1.6	0.013 (≈ 0.0202 µM)	
COc1ncc(-c2ccc3nccc(-c4ccc(CN5CCN(C)CC5)cc4)c3c2)cc1NS(=O)(=O)c1ccc(F)cc1F [Compound 23, N-(5-(4-(4-((4-methylpiperazine-1-yl)methyl)phenyl)quinolin-6-yl)-2-methoxypyridine-3-yl)-2,4-difluorobenzenesulfonamide]		0.207 (≈ 0.336 µM)	0.027 (≈ 0.0439 µM)	1.3	0.00818 (≈ 0.0133 µM)	
COc1ncc(-c2ccc3nccc(-c4ccc(CN(C)CCN(C)C)cc4)c3c2)cc1NS(=O)(=O)c1ccc(F)cc1F [Compound 24]	87 to 88	0.157 (≈ 0.254 µM)	0.032 (≈ 0.0518 µM)	2.5	0.00804 (≈ 0.013 µM)	
COc1ncc(-c2ccc3nccc(-n4cncn4)c3c2)cc1NS(=O)(=O)c1ccc(F)cc1 [Compound 25, N-(5-(4-(1H-1,2,4-triazole-1-yl)quinolin-6-yl)-2-methoxypyridine-3-yl)-4-fluorobenzenesulfonamide]	122 to 124		1.04 (≈ 2.18 µM)	1.2	1.02 (≈ 2.14 µM)	9.49 (≈ 19.9 µM)
O=S(=O)(Nc1cc(-c2ccc3nccc(-n4cncn4)c3c2)cnc1Cl)c1ccc(F)cc1F [Compound 26, N-(5-(4-(1H-1,2,4-triazole-1-yl)quinolin-6-yl)-2-chlorinepyridin-3-yl)-2,4-difluorobenzenesulfonamide]	118 to 121		1.23 (≈ 2.47 µM)	0.59	2.35 (≈ 4.71 µM)	2.8 (≈ 5.61 µM)
O=S(=O)(Nc1cc(-c2ccc3nccc(-c4ccc(CN5CCOCC5)cc4)c3c2)cnc1Cl)c1ccc(F)cc1 [Compound 28, N-(5-(4-(4-((morpholino-1-yl)methyl)phenyl)quinolin-6-yl)-2-chlorinepyridin-3-yl)-4-fluorobenzenesulfonamide]			1.87 (≈ 3.17 µM)	1.5	0.47 (≈ 0.798 µM)	4.55 (≈ 7.72 µM)
COc1ncc(-c2ccc3nccc(-c4ccc(CN5CCOCC5)cc4)c3c2)cc1NS(=O)(=O)c1ccc(F)cc1 [Compound 29, N-(5-(4-(4-((morpholino-1-yl)methyl)phenyl)quinolin-6-yl)-2-methoxypyridine-3-yl)-4-fluorobenzenesulfonamide]			1.37 (≈ 2.34 µM)	1.6	0.15 (≈ 0.257 µM)	15.9 (≈ 27.1 µM)
O=S(=O)(Nc1cc(-c2ccc3nccc(-c4ccc(CN5CCOCC5)cc4)c3c2)cnc1Cl)c1ccc(F)cc1F [Compound 30, N-(5-(4-(4-((morpholino-1-yl)methyl)phenyl)quinolin-6-yl)-2-chlorinepyridin-3-yl)-2,4-difluorobenzenesulfonamide]			2.39 (≈ 3.94 µM)	1.1	0.22 (≈ 0.362 µM)	1.4 (≈ 2.31 µM)
COc1ncc(-c2ccc3nccc(-c4ccc(CN(C)CCO)cc4)c3c2)cc1NS(=O)(=O)c1ccc(F)cc1 [Compound 38, N-(5-(4-(4-(((2-hydroxyethyl)(methyl)amino)methyl)phenyl)quinolin-6-yl)-2-methoxypyridine-3-yl)-4-fluorobenzenesulfonamide]			1.12 (≈ 1.96 µM)	4.8	0.19 (≈ 0.332 µM)	1.06 (≈ 1.85 µM)
COc1cccc2c1C(=O)c1c(O)c3c(c(O)c1C2=O)C[C@@](O)(C(=O)CO)C[C@@H]3O[C@H]1C[C@H](N)[C@H](O)[C@H](C)O1 [DOX, Doxorubicin, reference compound]		0.536 (≈ 0.986 µM)	0.0308 (≈ 0.0567 µM)		0.324 (≈ 0.596 µM)	
